Reference: US12174198B2, “Methods of characterizing condensate-associated characteristics of compounds and uses thereof” (Dewpoint Therapeutics, Inc., priority 2019, dated 2024)

Experiments:
Type in all cases: physicochemical
[1] = system: FUS-SNAP condensates versus PGL-3 condensates; assay: Condensate preference: ratio of FUS-SNAP I-in:I-out to PGL-3 I-in:I-out; conditions: average FUS-SNAP I-in:I-out divided by average PGL-3 I-in:I-out
Experimental: (§1) The ratios of the average intensity measured in the target condensates and outside of the target condensates were calculated by dividing I-in by I-out, although dividing I-out by I-in could also have been used. The I-in:I-out ratios determined from the two different days of experiments were then averaged. The average I-in:I-out ratios for FUS-SNAP condensates are shown in FIG. 3 and the average I-in:I-out ratios for PGL-3 condensates are shown in FIG. 4. The standard deviation between the two experiments is represented by the error bars in FIG. 3 and FIG. 4.

[2] = target: T1, PGL-3 condensates (Caenorhabditis elegans, UniProt G5EBV6); assay: Fluorescence imaging of dye partitioning in PGL-3 condensates (I-in, I-out); conditions: for Ratio of intensity inside:outside PGL-3 Condensates Day 1 / Ratio of intensity inside:outside PGL-3 Condensates Day 2 / Ratio of intensity inside:outside PGL-3 Condensates Average: I-in:I-out; for Ratio of intensity inside:outside PGL-3 Condensates Day 1 / Ratio of intensity inside:outside PGL-3 Condensates Day 2 / Ratio of intensity inside:outside PGL-3 Condensates Average / Intensity Inside with Dye Average / Intensity Inside with Dye 1 / Intensity Inside with Dye 2 / Intensity Inside with Dye 3 / Intensity Outside with Dye Average / Intensity Outside with Dye 1 / Intensity Outside with Dye 2 / Intensity Outside with Dye 3: 10 μM dye; for Ratio of intensity inside:outside PGL-3 Condensates Average: average of two days; for Intensity Inside with Dye Average / Intensity Inside with Dye 1 / Intensity Inside with Dye 2 / Intensity Inside with Dye 3 / Intensity Inside Dye-No Dye: inside PGL-3 condensate; for Intensity Inside with Dye Average / Intensity Inside with Dye 1 / Intensity Inside with Dye 2 / Intensity Inside with Dye 3 / Intensity Outside with Dye Average / Intensity Outside with Dye 1 / Intensity Outside with Dye 2 / Intensity Outside with Dye 3: 5 μM protein; for Intensity Inside with Dye Average / Intensity Outside with Dye Average: average of three images; for Intensity Inside with Dye Average / Intensity Inside with Dye 1 / Intensity Inside with Dye 2 / Intensity Inside with Dye 3 / Intensity Inside Dye-No Dye / Intensity Outside with Dye Average / Intensity Outside with Dye 1 / Intensity Outside with Dye 2 / Intensity Outside with Dye 3 / Intensity Outside (Dye-No Dye): one day of experiments; for Intensity Inside with Dye 1 / Intensity Outside with Dye 1: image 1; for Intensity Inside with Dye 2 / Intensity Outside with Dye 2: image 2; for Intensity Inside with Dye 3 / Intensity Outside with Dye 3: image 3; for Intensity Inside Dye-No Dye / Intensity Outside (Dye-No Dye): background corrected; for Intensity Outside with Dye Average / Intensity Outside with Dye 1 / Intensity Outside with Dye 2 / Intensity Outside with Dye 3 / Intensity Outside (Dye-No Dye): outside PGL-3 condensate
T1 sequence (G5EBV6 1-693): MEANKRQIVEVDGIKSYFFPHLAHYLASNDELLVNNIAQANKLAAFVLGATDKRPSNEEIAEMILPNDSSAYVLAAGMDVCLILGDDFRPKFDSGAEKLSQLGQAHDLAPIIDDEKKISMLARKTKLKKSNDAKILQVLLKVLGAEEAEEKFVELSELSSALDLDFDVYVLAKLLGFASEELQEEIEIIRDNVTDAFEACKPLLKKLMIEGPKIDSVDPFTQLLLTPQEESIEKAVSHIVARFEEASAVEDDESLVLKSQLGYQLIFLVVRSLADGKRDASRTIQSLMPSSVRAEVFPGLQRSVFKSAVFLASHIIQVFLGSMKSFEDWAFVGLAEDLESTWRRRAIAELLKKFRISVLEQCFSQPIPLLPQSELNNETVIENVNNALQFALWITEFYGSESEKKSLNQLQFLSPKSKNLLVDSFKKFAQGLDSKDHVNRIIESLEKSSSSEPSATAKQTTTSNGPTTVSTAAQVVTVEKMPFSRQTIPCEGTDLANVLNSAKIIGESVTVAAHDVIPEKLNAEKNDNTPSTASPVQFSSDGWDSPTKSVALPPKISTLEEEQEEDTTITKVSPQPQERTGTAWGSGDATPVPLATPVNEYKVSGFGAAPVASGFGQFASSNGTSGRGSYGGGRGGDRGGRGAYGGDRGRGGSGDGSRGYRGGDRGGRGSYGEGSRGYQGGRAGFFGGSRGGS
Experimental: (§2) All dye-stocks were stored as 1 mM solutions in 100% DMSO. The dyes were dissolved in dilution buffer (DB: 14.7 mM Tris, pH 7.25, 1 mM DTT) to yield 11.765 μM dye in 1.1765 DMSO. 17 μl of dye was distributed in a 384 well non-binding plate (Greiner).
(§3) Either SNAP-tagged FUS protein or tag-free PGL-3 protein was thawed at room temperature for at least 10 min, and the buffer was exchanged to partitioning buffer (PB: 50 mM Tris pH 7.25, 500 mM KCl, 5% Glycerol, and 1 mM DTT). The protein was then diluted to 33.3 μM in PB. 3 μl of protein solution were added to the 384 well plate to initiate phase separation, yielding 20 μl of 5 μM protein and 10 μM dye in 75 mM KCl, 0.75% Glycerol, 20 mM Tris, 1 mM DTT, and 1% DMSO or for no dye control reactions, 20 μl of 5 μM protein in 75 mM KCl, 0.75% Glycerol, 20 mM Tris, 1 mM DTT.
(§4) A spinning disk confocal microscope was used to acquire images of the samples. A 60×oil high-NA objective lens was used to capture the condensate droplets. The laser power was set to 20% and the exposure times were adjusted to the fluorescence emission intensity specific for each dye. Exposure times ranged from 1-1000 ms. Appropriate filter settings were used, matching the excitation and emission spectra of the respective dyes. Three images per well were taken. The background signal of protein droplets in the absence of dye was recorded for all applied imaging conditions.
(§5) Fluorescence intensity was measured inside one exemplary target condensate (Intensity inside, I-in) per image and in a region next to the exemplary target condensate (Intensity outside, I-out) by hand using the image analysis software Fiji. An example depicting the regions measured is shown FIG. 2A. Three I-in and three I-out values were measured in total for each dye in each experiment and were averaged. The measured I-in and I-out values for FUS-SNAP condensates on one day of experiments are shown in Table 2 and Table 3, respectively. The measured I-in and I-out values for PGL-3 condensates on one day of experiments are shown in Table 4 and Table 5, respectively. All values were background corrected, based on the background images (no dye controls) taken with the same microscope conditions.
as §1

[3] = target: T2, FUS-SNAP condensates (Homo sapiens, UniProt P35637); assay: Fluorescence imaging of dye partitioning in FUS-SNAP condensates (I-in, I-out); conditions: for Ratio of intensity inside:outside FUS-SNAP Condensates Day 1 / Ratio of intensity inside:outside FUS-SNAP Condensates Day 2 / Ratio of intensity inside:outside FUS-SNAP Condensates Average: I-in:I-out; for Ratio of intensity inside:outside FUS-SNAP Condensates Day 1 / Ratio of intensity inside:outside FUS-SNAP Condensates Day 2 / Ratio of intensity inside:outside FUS-SNAP Condensates Average / Intensity Inside with Dye Average / Intensity Inside with Dye 1 / Intensity Inside with Dye 2 / Intensity Inside with Dye 3 / Intensity Outside with Dye Average / Intensity Outside with Dye 1 / Intensity Outside with Dye 2 / Intensity Outside with Dye 3: 10 μM dye; for Ratio of intensity inside:outside FUS-SNAP Condensates Average: average of two days; for Intensity Inside with Dye Average / Intensity Inside with Dye 1 / Intensity Inside with Dye 2 / Intensity Inside with Dye 3 / Intensity Inside Dye-No Dye: inside FUS-SNAP condensate; for Intensity Inside with Dye Average / Intensity Inside with Dye 1 / Intensity Inside with Dye 2 / Intensity Inside with Dye 3 / Intensity Outside with Dye Average / Intensity Outside with Dye 1 / Intensity Outside with Dye 2 / Intensity Outside with Dye 3: 5 μM protein; for Intensity Inside with Dye Average / Intensity Outside with Dye Average: average of three images; for Intensity Inside with Dye Average / Intensity Inside with Dye 1 / Intensity Inside with Dye 2 / Intensity Inside with Dye 3 / Intensity Inside Dye-No Dye / Intensity Outside with Dye Average / Intensity Outside with Dye 1 / Intensity Outside with Dye 2 / Intensity Outside with Dye 3 / Intensity Outside (Dye-No Dye): one day of experiments; for Intensity Inside with Dye 1 / Intensity Outside with Dye 1: image 1; for Intensity Inside with Dye 2 / Intensity Outside with Dye 2: image 2; for Intensity Inside with Dye 3 / Intensity Outside with Dye 3: image 3; for Intensity Inside Dye-No Dye / Intensity Outside (Dye-No Dye): background corrected; for Intensity Outside with Dye Average / Intensity Outside with Dye 1 / Intensity Outside with Dye 2 / Intensity Outside with Dye 3 / Intensity Outside (Dye-No Dye): outside FUS-SNAP condensate
T2 sequence (P35637 1-526): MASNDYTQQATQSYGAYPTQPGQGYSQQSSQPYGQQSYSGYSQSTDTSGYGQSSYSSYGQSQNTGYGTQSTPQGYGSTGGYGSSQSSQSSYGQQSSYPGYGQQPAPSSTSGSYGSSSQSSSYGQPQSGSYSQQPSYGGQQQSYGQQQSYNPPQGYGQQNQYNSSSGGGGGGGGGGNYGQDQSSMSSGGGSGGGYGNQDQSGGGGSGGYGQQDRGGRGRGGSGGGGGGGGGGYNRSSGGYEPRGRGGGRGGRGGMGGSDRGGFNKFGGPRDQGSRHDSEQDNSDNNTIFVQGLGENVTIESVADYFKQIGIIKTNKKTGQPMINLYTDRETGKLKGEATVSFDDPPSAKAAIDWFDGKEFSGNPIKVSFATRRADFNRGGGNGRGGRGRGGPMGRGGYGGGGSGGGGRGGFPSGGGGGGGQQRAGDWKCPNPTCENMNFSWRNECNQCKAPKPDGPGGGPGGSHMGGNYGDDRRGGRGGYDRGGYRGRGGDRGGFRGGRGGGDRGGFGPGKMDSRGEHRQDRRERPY
Experimental: as §2, §3, §4, §5, §1

| Compound | Ratio of intensity inside:outside PGL-3 Condensates Day 2 [2] | Intensity Inside with Dye Average [2] | Intensity Inside with Dye 1 [2] | Intensity Inside with Dye 2 [2] | Intensity Inside with Dye 3 [2] | Intensity Inside Dye-No Dye [2] | Intensity Outside with Dye Average [2] | Intensity Outside with Dye 1 [2] | Intensity Outside with Dye 2 [2] | Intensity Outside with Dye 3 [2] | Intensity Outside (Dye-No Dye) [2] | Ratio of intensity inside:outside FUS-SNAP Condensates Day 1 [3] | Intensity Inside with Dye Average [3] | Intensity Inside with Dye 1 [3] | Intensity Inside with Dye 2 [3] | Intensity Inside with Dye 3 [3] | Intensity Inside Dye-No Dye [3] | Intensity Outside with Dye Average [3] | Intensity Outside with Dye 1 [3] | Intensity Outside with Dye 2 [3] | further results |
| --- | --- | --- | --- | --- | --- | --- | --- | --- | --- | --- | --- | --- | --- | --- | --- | --- | --- | --- | --- | --- | --- |
| 6-[Fluorescein-5(6)-carboxamido]-hexanoic acid [Dye 8] | 1.0 | 3538.6 | 3527.5 | 3608.1 | 3480.3 | 3392.1 | 3496.8 | 3491.4 | 3551.4 | 3447.6 | 3391.4 | 1.7 | 5354.9 | 5285.1 | 5631.6 | 5148.0 | 5219.7 | 3178.8 | 3064.0 | 3267.0 | Ratio of FUS-SNAP:PGL-3 [1]: 1.6; Ratio of intensity inside:outside PGL-3 Condensates Day 1 [2]: 1.0; Ratio of intensity inside:outside PGL-3 Condensates Average [2]: 1.0; Ratio of intensity inside:outside FUS-SNAP Condensates Day 2 [3]: 1.6; Ratio of intensity inside:outside FUS-SNAP Condensates Average [3]: 1.6; Intensity Outside with Dye 3 [3]: 3205.5; Intensity Outside (Dye-No Dye) [3]: 3074.8 |
| N=C(N)c1ccc(-c2cc3ccc(C(=N)N)cc3[nH]2)cc1 [Dye 1, DAPI] | 3.3 | 212.6 | 211.3 | 211.0 | 215.7 | 91.9 | 168.8 | 173.1 | 168.4 | 164.9 | 48.4 | 4.6 | 622.4 | 638.5 | 599.9 | 628.8 | 502.4 | 228.6 | 233.9 | 233.3 | Ratio of FUS-SNAP:PGL-3 [1]: 1.5; Ratio of intensity inside:outside PGL-3 Condensates Day 1 [2]: 1.9; Ratio of intensity inside:outside PGL-3 Condensates Average [2]: 2.6; Ratio of intensity inside:outside FUS-SNAP Condensates Day 2 [3]: 3.3; Ratio of intensity inside:outside FUS-SNAP Condensates Average [3]: 4.0; Intensity Outside with Dye 3 [3]: 218.7; Intensity Outside (Dye-No Dye) [3]: 108.6 |
| CC/N=c1/cc2oc3cc(NCC)c(C)cc3c(-c3ccccc3C(=O)NCCOCCOCCN)c-2cc1C.O=C(O)C(F)(F)F [Dye 15, N-(8-Amino-3,6-dioxaoctyl)-rhodamine 6G-amide bis(trifluoroacetate)] | 3.3 | 6487.9 | 6831.9 | 6829.0 | 5802.8 | 1228.1 | 1263.8 | 1289.1 | 1266.2 | 1236.3 | 555.7 | 70.8 | 3480.0 | 3084.2 | 3756.7 | 3599.3 | −732.6 | 539.8 | 559.0 | 527.6 | Intensity Outside with Dye 3 [3]: 532.7; Intensity Outside (Dye-No Dye) [3]: −10.3 |
